The experiment concerns the target T1, KRAS G12C 1-169, his-tagged protein, GDP-loaded (Homo sapiens, UniProt P01116, G12C).
T1 construct: KRAS G12C 1-169, his-tagged protein, GDP-loaded
The experiment in a line: Biochemical assay: covalent modification of KRAS G12C measured by mass spectrometry (RapidFire/TOF or Q-Exactive). The following applies: covalent binding to KRAS G12C; compounds of structure (I). The method, boiled down:
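Covalent adduct formation read by intact-mass spectrometry (TOF or Q Exactive Plus, charge envelopes deconvoluted into modified and unmodified species) after formic acid quench. Reactions contained 2 μM GDP-bound KRAS G12C 1-169 (his-tag) in Hepes/NaCl/MgCl2 buffer plus 10, 30 or 100 μM final compound, held 30 min, 2 h or 24 h at room temperature.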

With `C=CC(=O)N1CCN(c2nc(OCC(O)CN(C)C)nc3c(F)c(-c4cc(O)cc5ccccc45)c(Cl)cc23)CC1` (centres unmarked) [Example I-58, 1-(4-(6-chloro-2-(3-(dimethyl-amino)-2-hydroxy-propoxy)-8-fluoro-7-(3-hydroxy-naphthalen-1-yl)quinazolin-4-yl)piperazin-1-yl)prop-2-en-1-one], the Binding % entry is recorded as “+++ (+++ indicates binding activity greater than 90%)”.

As for `C=CC(=O)N1CCN(c2nc(OC3CCN(C)CC3)nc3c(F)c(-c4c(C)ccc5[nH]ncc45)c(Cl)cc23)CC1` [Example I-59, 1-(4-(6-chloro-8-fluoro-7-(5-methyl-1H-indazol-4-yl)-2-(1-methyl-piperidin-4-yloxy)quinazolin-4-yl)piperazin-1-yl)prop-2-en-1-one], the Binding % result was “+++ (+++ indicates binding activity greater than 90%)”.

Take `C=C(F)C(=O)N1CCN(c2nc(OCCN3CCOCC3)nc3c(F)c(-c4c(O)cccc4F)c(Cl)cc23)CC1` [Example I-60, 1-(4-(6-chloro-8-fluoro-7-(2-fluoro-6-hydroxyphenyl)-2-(2-morpholino-ethoxy)quinazolin-4-yl)piperazin-1-yl)-2-fluoroprop-2-en-1-one]: the Binding % result was “++ (++ indicates binding activity from 50 to 90%)”.

`C=CC(=O)N1CCN(c2nc(NCCF)nc3c(F)c(-c4cc(O)cc5ccccc45)c(Cl)cc23)CC1` [Example I-61, 1-(4-(6-chloro-8-fluoro-2-(2-fluoroethyl-amino)-7-(3-hydroxy-naphthalen-1-yl)quinazolin-4-yl)piperazin-1-yl)prop-2-en-1-one]: the Binding % entry is recorded as “+++ (+++ indicates binding activity greater than 90%)”.

Regarding `C=CC(=O)N1CCN(c2nc(OCCCN3CCC(F)(F)C3)nc3c(F)c(-c4c(O)cccc4F)c(Cl)cc23)CC1` [Example I-62, 1-(4-(6-chloro-2-(3-(3,3-difluoro-pyrrolidin-1-yl)propoxy)-8-fluoro-7-(2-fluoro-6-hydroxyphenyl)quinazolin-4-yl)piperazin-1-yl) prop-2-en-1-one], the Binding % result is listed as “+++ (+++ indicates binding activity greater than 90%)”.

Regarding `C=CC(=O)N1CCN(c2nc(OC3CCC(O)CC3)nc3c(F)c(-c4c(O)cccc4F)c(Cl)cc23)CC1` (centres unmarked) [Example I-63, 1-(4-(6-chloro-8-fluoro-7-(2-fluoro-6-hydroxyphenyl)-2-(4-hydroxy-cyclohexyloxy)quinazolin-4-yl)piperazin-1-yl)prop-2-en-1-one], the Binding % result is reported as “+++ (+++ indicates binding activity greater than 90%)”.

With `C=CC(=O)N1CCN(c2nc(Oc3cn[nH]c3)nc3c(F)c(-c4c(O)cccc4F)c(Cl)cc23)CC1` [Example I-64, 1-(4-(2-(1H-pyrazol-4-yloxy)-6-chloro-8-fluoro-7-(2-fluoro-6-hydroxyphenyl)quinazolin-4-yl)piperazin-1-yl) prop-2-en-1-one], the Binding % result is given as “+++ (+++ indicates binding activity greater than 90%)”.

On to `CN(C)C/C=C/C(=O)N1CCN(c2nc(OCCN3CCOCC3)nc3c(F)c(-c4cc(O)cc5ccccc45)c(Cl)cc23)CC1` [Example I-65, (E)-1-(4-(6-chloro-8-fluoro-7-(3-hydroxy-naphthalen-1-yl)-2-(2-morpholino-ethoxy)quinazolin-4-yl)piperazin-1-yl)-4-(dimethyl-amino)but-2-en-1-one], for which the Binding % result is “+++ (+++ indicates binding activity greater than 90%)”.

In the case of `C=CC(=O)N1CCN(c2nc(NC3CCS(=O)(=O)CC3)nc3c(F)c(-c4c(O)cccc4F)c(Cl)cc23)CC1` [Example I-66, 1-(4-(6-chloro-8-fluoro-7-(2-fluoro-6-hydroxyphenyl)-2-(tetrahydro-2H-dioxothio-pyran-4-ylamino)quinazolin-4-yl)piperazin-1-yl) prop-2-en-1-one], the Binding % result is recorded as “+++ (+++ indicates binding activity greater than 90%)”.

Take `C=CC(=O)N1CCN(c2nc(OCCN3CCS(=O)(=O)CC3)nc3c(F)c(-c4c(O)cccc4F)c(Cl)cc23)CC1` [Example I-67, 1-(4-(6-chloro-8-fluoro-7-(2-fluoro-6-hydroxyphenyl)-2-(2-dioxothio-morpholino-ethoxy)quinazolin-4-yl)piperazin-1-yl)prop-2-en-1-one]: the Binding % result is recorded as “+++ (+++ indicates binding activity greater than 90%)”.

As for `C=CC(=O)N1CCN(c2nc(C#N)nc3c(F)c(-c4c(O)cccc4F)c(Cl)cc23)CC1` [Example I-68, 4-(4-acryloyl-piperazin-1-yl)-6-chloro-8-fluoro-7-(2-fluoro-6-hydroxyphenyl) quinazoline-2-carbonitrile], the Binding % result was “+++ (+++ indicates binding activity greater than 90%)”.

Take `C=CC(=O)N1CCN(c2nc(NC3CCOCC3)nc3c(F)c(-c4cc(O)cc5ccccc45)c(Cl)cc23)CC1` [Example I-69, 1-(4-(6-chloro-8-fluoro-7-(3-hydroxy-naphthalen-1-yl)-2-(tetrahydro-2H-pyran-4-ylamino)quinazolin-4-yl)piperazin-1-yl)prop-2-en-1-one]: the Binding % result is given as “+++ (+++ indicates binding activity greater than 90%)”.

On to `C=CC(=O)N1CCN(c2nc(NC3CCN(C(C)=O)CC3)nc3c(F)c(-c4c(O)cccc4F)c(Cl)cc23)CC1` [Example I-70, 1-(4-(2-(1-acetyl-piperidin-4-ylamino)-6-chloro-8-fluoro-7-(2-fluoro-6-hydroxyphenyl)quinazolin-4-yl)piperazin-1-yl) prop-2-en-1-one], for which the Binding % result is given as “+++ (+++ indicates binding activity greater than 90%)”.

Regarding `C=CC(=O)N1CCN(c2nc(NC3CCOC3)nc3c(F)c(-c4cc(O)cc5ccccc45)c(Cl)cc23)CC1` (centres unmarked) [Example I-71, 1-(4-(6-chloro-8-fluoro-7-(3-hydroxy-naphthalen-1-yl)-2-(tetrahydro-furan-3-ylamino)quinazolin-4-yl)piperazin-1-yl)prop-2-en-1-one], the Binding % entry is “+++ (+++ indicates binding activity greater than 90%)”.

Turning to `C=CC(=O)N1CCN(c2nc(NC3CCN(C4CC4)CC3)nc3c(F)c(-c4c(O)cccc4F)c(Cl)cc23)CC1` [Example I-72, 1-(4-(6-chloro-2-(1-cyclopropyl-piperidin-4-ylamino)-8-fluoro-7-(2-fluoro-6-hydroxyphenyl)quinazolin-4-yl)piperazin-1-yl) prop-2-en-1-one], the Binding % result was “+++ (+++ indicates binding activity greater than 90%)”.

Take `C=C(Cl)C(=O)N1CCN(c2nc(OCCN3CCOCC3)nc3c(F)c(-c4cc(O)cc5ccccc45)c(Cl)cc23)CC1` [Example I-73, 2-chloro-1-(4-(6-chloro-8-fluoro-7-(3-hydroxy-naphthalen-1-yl)-2-(2-morpholino-ethoxy)quinazolin-4-yl)piperazin-1-yl)prop-2-en-1-one]: the Binding % entry is on record as “+++ (+++ indicates binding activity greater than 90%)”.

For `CN(C)C/C=C/C(=O)N1CCN(c2nc(OCCN3CCOCC3)nc3c(F)c(-c4c(O)cccc4F)c(Cl)cc23)CC1` [Example I-74, (E)-1-(4-(6-chloro-8-fluoro-7-(2-fluoro-6-hydroxyphenyl)-2-(2-morpholino-ethoxy)quinazolin-4-yl)piperazin-1-yl)-4-(dimethyl-amino)but-2-en-1-one], the Binding % entry is “+++ (+++ indicates binding activity greater than 90%)”.

Values taken from patent publication US10829458B2 (Araxes Pharma LLC, priority 2015, dated 2020).
